Read-outs that look alike come from different tables or passages of the source.
Target: T1, Androgen Receptor (Homo sapiens, UniProt P10275)
T1 construct: endogenous in cells; host or cells: VCaP cells
T1 sequence (P10275 1-920): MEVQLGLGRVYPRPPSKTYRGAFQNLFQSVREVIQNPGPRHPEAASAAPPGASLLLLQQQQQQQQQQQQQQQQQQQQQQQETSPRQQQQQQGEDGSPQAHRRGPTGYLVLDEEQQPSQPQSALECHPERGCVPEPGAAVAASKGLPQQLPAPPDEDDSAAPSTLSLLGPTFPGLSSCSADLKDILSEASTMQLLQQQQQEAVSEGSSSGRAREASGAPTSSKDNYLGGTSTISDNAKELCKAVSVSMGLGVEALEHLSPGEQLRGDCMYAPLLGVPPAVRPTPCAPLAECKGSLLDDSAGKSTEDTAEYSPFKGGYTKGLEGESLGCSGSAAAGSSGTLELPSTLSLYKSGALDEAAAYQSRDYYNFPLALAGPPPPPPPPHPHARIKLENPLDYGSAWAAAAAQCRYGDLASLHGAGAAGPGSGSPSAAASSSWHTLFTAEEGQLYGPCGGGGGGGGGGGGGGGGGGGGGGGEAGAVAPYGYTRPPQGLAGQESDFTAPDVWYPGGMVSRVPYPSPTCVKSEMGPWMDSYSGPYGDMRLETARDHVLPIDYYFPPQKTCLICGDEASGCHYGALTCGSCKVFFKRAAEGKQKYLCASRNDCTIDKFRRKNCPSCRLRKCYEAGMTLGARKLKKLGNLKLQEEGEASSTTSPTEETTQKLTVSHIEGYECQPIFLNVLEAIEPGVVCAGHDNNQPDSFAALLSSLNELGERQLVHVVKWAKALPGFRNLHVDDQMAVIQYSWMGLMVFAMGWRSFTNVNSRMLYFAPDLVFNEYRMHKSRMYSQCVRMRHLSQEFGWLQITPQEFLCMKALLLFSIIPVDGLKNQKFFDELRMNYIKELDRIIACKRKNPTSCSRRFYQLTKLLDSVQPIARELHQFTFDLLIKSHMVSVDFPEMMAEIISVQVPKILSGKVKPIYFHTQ
Test: Androgen Receptor ELISA assay (PathScan AR ELISA) in VCaP cells: AR degradation, Dmax and DC50
Type: cell-based
Outline: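 After 24 h exposure of VCaP cells (charcoal-stripped serum, 0.1 nM R1881 agonist, 0.1% DMSO) to seven half-log compound concentrations, residual AR in lysates was measured by PathScan ELISA (TMB absorbance, 450 nm). Cells were plated at 30,000/well and grown at least 3 days beforehand.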

[1] = VCaP cells; Table 36; read-out: VCaP DC50
[2] = VCaP cells; concentration that caused 50% Androgen Receptor degradation; read-out: VCaP DC50
[3] = VCaP, VCaP cells; highest percentage of Androgen Receptor degradation; read-out: VCaP Dmax (%)
[4] = VCaP cells; Table 35; read-out: VCaP DC50
[5] = VCaP, VCaP cells; Table 35; read-out: VCaP Dmax (%)
[6] = VCaP, VCaP cells; Table 36; read-out: VCaP Dmax (%)

SMILES: Cc1ncsc1-c1ccc([C@H](CO)NC(=O)[C@@H]2C[C@@H](O)CN2C(=O)[C@@H](NC(=O)CN2CCN(CC3CCN(c4ccc(C(=O)N[C@H]5C(C)(C)[C@H](Oc6ccc(C#N)c(Cl)c6)C5(C)C)cn4)CC3)CC2)C(C)(C)C)cc1 [Example 854, N-((1r,3r)-3-(3-chloro-4-cyanophenoxy)-2,2,4,4-tetramethylcyclobutyl)-6-(4-((4-(2-(((S)-1-((2S,4R)-4-hydroxy-2-(((R)-2-hydroxy-1-(4-(4-methylthiazol-5-yl)phenyl)ethyl)carbamoyl)pyrrolidin-1-yl)-3,3-dimethyl-1-oxobutan-2-yl)amino)-2-oxoethyl)piperazin-1-yl)methyl)piperidin-1-yl)nicotinamide]
- DC50 [1]: < 50 nM
- Dmax (VCaP, read-out: VCaP Dmax (%)): > 71%

SMILES: Cc1ncsc1-c1ccc([C@H](CO)NC(=O)[C@@H]2C[C@@H](O)CN2C(=O)[C@@H](NC(=O)COCCN2C3CCC2CN(c2ccc(C(=O)N[C@H]4C(C)(C)[C@H](Oc5ccc(C#N)c(Cl)c5)C4(C)C)cn2)C3)C(C)(C)C)cc1 [Example 821, N-((1r,3r)-3-(3-chloro-4-cyanophenoxy)-2,2,4,4-tetramethylcyclobutyl)-6-(8-(2-(2-(((S)-1-((2S, 4R)-4-hydroxy-2-(((R)-2-hydroxy-1-(4-(4-methylthiazol-5-yl)phenyl)ethyl)carbamoyl)pyrrolidin-1-yl)-3,3-dimethyl-1-oxobutan-2-yl)amino)-2-oxoethoxy)ethyl)-3,8-diazabicyclo [3.2.1]octan-3-yl) nicotinamide]
- Dmax (VCaP, read-out: VCaP Dmax (%)): > 71%
- DC50 (read-out: VCaP DC50; VCaP cells; Table 36): < 50 nM

SMILES: Cc1ncsc1-c1ccc(CNC(=O)[C@@H]2C[C@@H](O)CN2C(=O)[C@H](C(C)C)N2Cc3ccc(N4CCN(CCCc5ccc(C(=O)N[C@H]6C(C)(C)[C@H](Oc7ccc(C#N)c(C(F)(F)F)c7)C6(C)C)cc5)CC4)cc3C2=O)cc1 [Example 762, (2S,4R)-1-((S)-2-(6-(4-(3-(4-(((1r,3r)-3-(4-cyano-3-(trifluoromethyl)phenoxy)-2,2,4,4-tetramethylcyclobutyl)carbamoyl)phenyl)propyl)piperazin-1-yl)-1-oxoisoindolin-2-yl)-3-methylbutanoyl)-4-hydroxy-N-(4-(4-methylthiazol-5-yl)benzyl)pyrrolidine-2-carboxamide]
- DC50 [1]: > 501 nM
- Dmax (VCaP, read-out: VCaP Dmax (%), VCaP cells; Table 36): < 25%

SMILES: Cc1ncsc1-c1ccc([C@H](C)NC(=O)[C@@H]2C[C@@H](O)CN2C(=O)[C@@H](NC(=O)COCCCCOc2ccc(-c3ccc(N4C(=S)N(c5cnc(C#N)c(C(F)(F)F)c5)C(=O)C4(C)C)c(F)c3)cc2)C(C)(C)C)cc1 [Example 196, (2S,4R)-1-[(2S)-2-(2-{4-[4-(4-{3-[6-cyano-5-(trifluoromethyl)pyridin-3-yl]-5,5-dimethyl-4-oxo-2-sulfanylideneimidazolidin-1-yl}-3-fluorophenyl)phenoxy]butoxy}acetamido)-3,3-dimethylbutanoyl]-4-hydroxy-N-[(1S)-1-[4-(4-methyl-1,3-thiazol-5-yl)phenyl]ethyl]pyrrolidine-2-carboxamide]
- DC50 [2]: < 50 nM
- Dmax [3]: > 71%

SMILES: Cc1ncsc1-c1ccc(CNC(=O)[C@@H]2C[C@@H](O)CN2C(=O)[C@@H](NC(=O)COCCCOCCCCOc2ccc(N3C(=S)N(c4ccc(C#N)c(C(F)(F)F)c4)C(=O)C34CCOCC4)cc2)C(C)(C)C)cc1 [Example 43, (2S,4R)-1-[(2S)-2-(2-{3-[4-(4-{3-[4-cyano-3-(trifluoromethyl)phenyl]-4-oxo-2-sulfanylidene-8-oxa-1,3-diazaspiro[4.5]decan-1-yl}phenoxy)butoxy]propoxy}acetamido)-3,3-dimethylbutanoyl]-4-hydroxy-N-{[4-(4-methyl-1,3-thiazol-5-yl)phenyl]methyl}pyrrolidine-2-carboxamide]
- Dmax (VCaP, read-out: VCaP Dmax (%)): 51 to 70%
- DC50 (read-out: VCaP DC50; concentration that caused 50% Androgen Receptor degradation, VCaP cells): < 50 nM

SMILES: CNC[C@@H](NC(=O)[C@@H]1C[C@@H](O)CN1C(=O)[C@@H](NC(=O)COCCCCCOc1ccc(C(=O)N[C@H]2C(C)(C)[C@H](Oc3ccc(C#N)c(Cl)c3)C2(C)C)cc1)C(C)(C)C)c1ccc(-c2scnc2C)cc1 [Example 514]
- DC50 [4]: > 501 nM
- Dmax [5]: 26 to 50%

SMILES: Cc1ncsc1-c1ccc(CNC(=O)[C@@H]2C[C@@H](O)CN2C(=O)[C@@H](NC(=O)COCCCOCCCCCOc2ccc(N3C(=S)N(c4cccc(C(F)(F)F)c4)C(=O)C3(C)C)cc2)C(C)(C)C)cc1 [Example 478]
- DC50 [4]: 51 to 500 nM
- Dmax [5]: 26 to 50%

SMILES: Cc1ncsc1-c1ccc([C@H](C)NC(=O)C2C[C@@H](O)CN2C(=O)[C@@H](NC(=O)CCCCCCc2ccc(C(=O)N[C@H]3C(C)(C)[C@H](Oc4ccc(C#N)c(Cl)c4)C3(C)C)cc2)C(C)(C)C)cc1 (stereo partly drawn) [Example 749, (2S,4R)-1-((S)-2-(7-(4-(((1r,3r)-3-(3-chloro-4-cyanophenoxy)-2,2,4,4-tetramethylcyclobutyl)carbamoyl)phenyl)heptan-amido)-3,3-dimethylbutanoyl)-4-hydroxy-N-((S)-1-(4-(4-methylthiazol-5-yl)phenyl)ethyl)pyrrolidine-2-carboxamide]
- DC50 [1]: < 50 nM
- Dmax [6]: > 71%

SMILES: CC(C)(C)[C@H](NC(=O)COCCCCOc1ccc(-c2ccc(N3C(=S)N(c4cnc(C#N)c(Cl)c4)C(=O)C3(C)C)cc2)cc1)C(=O)N1C[C@H](O)C[C@H]1C(=O)NCc1ccc(-c2cnco2)cc1 [Example 191, (2S,4R)-1-[(2S)-2-{2-[4-(4-{4-[3-(5-chloro-6-cyanopyridin-3-yl)-5,5-dimethyl-4-oxo-2-sulfanylideneimidazolidin-1-yl]phenyl}phenoxy)butoxy]acetamido}-3,3-dimethylbutanoyl]-4-hydroxy-N-{[4-(1,3-oxazol-5-yl)phenyl]methyl}pyrrolidine-2-carboxamide]
- DC50 [2]: < 50 nM
- Dmax [3]: 51 to 70%

SMILES: Cc1ncsc1-c1ccc([C@H](C)NC(=O)[C@@H]2C[C@@H](O)CN2C(=O)[C@@H](NC(=O)CO[C@@H](C)CN2CCN(c3ccc(C(=O)N[C@H]4C(C)(C)[C@H](Oc5ccc(C#N)c(Cl)c5)C4(C)C)cc3)CC2)C(C)(C)C)cc1 [Example 639, (1S,4R)-1-((S)-2-(2-(((S)-1-(4-(4-(((1r,3S)-3-(3-chloro-4-cyanophenoxy)-2,2,4,4-tetramethylcyclobutyl)carbamoyl)phenyl)piper-azin-1-yl)propan-2-yl)oxy)acetamido)-3,3-dimethylbutanoyl)-4-hydroxy-N-((S)-1-(4-(4-methylthiazol-5-yl)phenyl)ethyl)pyrrolidine-2-carboxamide]
- DC50 [1]: < 50 nM
- Dmax [6]: > 71%

SMILES: COc1cc(C#N)ccc1[C@H](C)NC(=O)[C@@H]1C[C@@H](O)CN1C(=O)[C@@H](NC(=O)COCCN1CCN(c2ccc(C(=O)N[C@H]3C(C)(C)[C@H](Oc4ccc(C#N)c(Cl)c4)C3(C)C)cn2)CC1)C(C)(C)C [Example 785, N-((1r,3r)-3-(3-chloro-4-cyanophenoxy)-2,2,4,4-tetramethylcyclobutyl)-6-(4-(2-(2-(((S)-1-((2S,4R)-2-(((S)-1-(4-cyano-2-methoxyphenyl)ethyl)carbamoyl)-4-hydroxypyrrolidin-1-yl)-3,3-dimethyl-1-oxobutan-2-yl)amino)-2-oxoethoxy)ethyl)piperazin-1-yl)nicotinamide]
- DC50 [1]: < 50 nM
- Dmax [6]: 51 to 70%

SMILES: Cc1ncsc1-c1ccc(CNC(=O)[C@@H]2C[C@@H](O)CN2C(=O)[C@@H](NC(=O)COCCCNC(=O)c2ccc(C(=O)N[C@H]3C(C)(C)[C@H](Oc4ccc(C#N)c(Cl)c4)C3(C)C)cc2)C(C)(C)C)cc1 [Example 409]
- DC50 (VCaP cells; Table 34; read-out: VCaP DC50): < 50 nM
- Dmax (VCaP, VCaP cells; Table 34; read-out: VCaP Dmax (%)): 51 to 70%

From patent publication US11427548B2 (Arvinas Operations, Inc., priority 2015, dated 2022)
